Tests used:
Type in all cases: physicochemical
Conditions in all cases: magnesium oxide raw material
[1] = Bulk density, 100 mL stainless steel cup
Procedure: The bulk density of magnesium oxide particles to be used in the present invention may be set to an upper limit of 0.8 g/mL or less, or 0.7 g/mL or less, since too high a density may cause a decrease in hardness. On the other hand, since too low bulk density may cause capping and lamination, the lower limit may be 0.1 g/mL or more, or 0.2 g/mL or more. Bulk density can be measured, e.g., using a 100 mL stainless steel cup (actual mass value (g)/100 (mL)).
(§1) The physical properties of the magnesium oxide used in these examples were measured, and the results were as follows. • Average particle size: 7.691 μm (measured according to laser diffraction scattering using a Microtrac Bell MT3300 EX2) • Bulk density: 0.249 g/mL (measured with 100 mL stainless steel cup (actual mass value (g)/100 (mL)) • Angle of repose: 41.7° (measured using MT-1 Multitester from Seishin Enterprise Co., Ltd.)
The weighed raw materials of magnesium oxide and internal additives were put into a polyethylene bag (1100 mm×600 mm) and mixed by shaking the bag 30 times from side to side. After the mixing, the bulk density was measured using a 100 mL stainless steel cup (actual mass value (g)/100 (mL)).
[formula] […]

[2] = Angle of repose, Multitester MT-1
Procedure: The angle of repose of magnesium oxide particles to be used in the present invention may be set to an upper limit of 50° or less, or 48° or less, since an excessively large angle of repose may lead to a variation in the mass of the resulting tablets during tableting due to deteriorated flowability. On the other hand, the lower limit of the angle of repose is not specified because the lower the angle of repose, the better. The angle of repose can be measured, e.g., using Multitester MT-1 from Seishin Enterprise Co., Ltd.
as §1
After mixing, the following items were evaluated. • Bulk density: Measured with 100 mL stainless steel cup (actual mass value (g)/100 (mL) • Angle of repose: Measured using MT-1 Multitester from Seishin Enterprise Co., Ltd.

[3] = Average particle size of magnesium oxide, laser diffraction scattering, MT3300 EX2
Procedure: The average particle size and average particle diameter of the magnesium oxide particles of the present invention and magnesium hydroxide particles used as raw materials therefor can be measured according to laser diffraction scattering method with a commonly used instrument, such as a particle size analyzer (MT3300EX2 from Microtrac Bell Corporation).
as §1

**Q.** What does the source list for `[O]=[Mg]` [Magnesium oxide]?
**A.** Bulk density [1]: 0.249 g/mL; Angle of repose [2]: 41.7 °; Average particle size [3]: 7.691 μm

Source: patent US20250127725A1, “MAGNESIUM OXIDE TABLETS” (SETOLAS Holdings, Inc., priority 2021, published 2025)
